Source: ChEMBL document CHEMBL1129908, “ECD peptides inhibit in vitro fertilization in mice” (Bioorg Med Chem Lett, 1997)
pIC50: −log10 of the molar value. Where a SMILES comes first, the peptide text is derived from it.

Species on record: Mus musculus
Assay: Tested for inhibition of sperm-egg fusion in in vitro mouse fertilization assays
Type: functional

pIC50: 3.60
SMILES: CC(C)C[C@H](NC(=O)[C@H](CCCN=C(N)N)NC(=O)[C@@H](N)CS)C(=O)N[C@@H](C)C(=O)N[C@@H](CCC(N)=O)C(=O)N[C@@H](CC(=O)O)C(=O)N[C@@H](CCC(=O)O)C(=O)N[C@@H](C)C(=O)N[C@@H](CC(=O)O)C(=O)N[C@H](C(=O)N[C@H](C(=O)N[C@@H](CCC(=O)O)C(=O)N[C@@H](Cc1ccc(O)cc1)C(=O)N[C@@H](CS)C(=O)O)[C@@H](C)O)C(C)C (H-CRLAQDEADVTEYC-OH)
